For this assay, the target named is Mitogen-activated protein kinase 1 (Homo sapiens, UniProt P28482). The assay can be described thus: IMAP-FP Assay: Activated ERK2 activity was determined in an IMAP-FP assay (Molecular Devices).

As a reminder, the IC50 is the point on the concentration scale where inhibition reaches its midpoint. A low value points to inhibition by little substance.

Chain of Mitogen-activated protein kinase 1 (P28482 whole entry): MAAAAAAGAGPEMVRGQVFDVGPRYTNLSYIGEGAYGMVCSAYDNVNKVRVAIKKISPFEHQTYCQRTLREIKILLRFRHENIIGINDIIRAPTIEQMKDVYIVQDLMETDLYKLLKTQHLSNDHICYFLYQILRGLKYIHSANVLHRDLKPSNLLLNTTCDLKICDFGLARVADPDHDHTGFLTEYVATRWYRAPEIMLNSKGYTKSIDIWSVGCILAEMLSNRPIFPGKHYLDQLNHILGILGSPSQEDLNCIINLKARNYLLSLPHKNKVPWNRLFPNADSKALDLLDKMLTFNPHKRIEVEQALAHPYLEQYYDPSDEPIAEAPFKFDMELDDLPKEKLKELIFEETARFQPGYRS

`COC(=O)Nc1n[nH]c2cc(NC(=O)N[C@H](C)c3ccc(Cl)c(OC)c3)ncc12` gave a half-maximal inhibitory concentration (IC50) of 5.2 nM.

The record behind these values is ChEMBL document CHEMBL3886473, “Compounds that are ERK inhibitors” (2016).
